From PubChem BioAssay AID624132 (Broad Institute, 2012)
Inconclusive results are not listed.

Test system: Clone20 osteoblast Shn3 3'UTR firefly luciferase, 24 h
Experiment: Shn3 3'UTR reporter inhibitors, dose response, cell-based, Clone20 osteoblasts, firefly luciferase, cherry-picked (AID 624132)

Row | SMILES | AC50
1 | CC1=CC2OC3CC4OC(=O)C=CC=CC(C(C)O)OCC(O)C(C)CC(=O)OCC2(CC1O)C4(C)C31CO1 (stereo not drawn) | < 260 nM
2 | CC(=O)OC1C(=O)OCC23CCC4(C)OC4C2OC2CC(OC(=O)C=CC=CC(=O)OCCC1C)C3(C)C21CO1 (stereo not drawn) | < 260 nM
3 | CC(=O)OC1CC2OC3C=C(C)CCC3(C)C1(C)C21CO1 (stereo not drawn) | 829 nM
4 | CC1=CC2OC3CC4OC(=O)C=CC=CC(C(C)O)OCC(O)C5(C)OC5C(=O)OCC2(CC1O)C4(C)C31CO1 (stereo not drawn) | < 260 nM
5 | CC(=O)OCC12CC(OC(=O)CC(C)C)C(C)=CC1OC1C(O)C(OC(C)=O)C2(C)C12CO2 (stereo not drawn) | < 260 nM
6 | CC(=O)OC[C@]12CCC(C)=C[C@H]1O[C@@H]1[C@H](O)[C@@H](OC(C)=O)[C@@]2(C)[C@]12CO2 | < 260 nM
7 | C[C@H]1[C@@H](OS(=O)(=O)O)C[C@@H]2C[C@H]([C@@H](O)c3cc(=O)[nH]c(=O)[nH]3)NC3=NC[C@H]1N32 | 1320 nM
8 | CC1=CC2OC3CC4OC(=O)C=CC=CC(=O)OCCC(C)C(O)C(=O)OCC2(CC1O)C4(C)C31CO1 (stereo not drawn) | < 260 nM
